Our source for the IC50 and inhibition values is patent US8129417B2, “Substituted octahydrocyclopenta[C]pyrrol-4-amines as calcium channel blockers” (Abbott Laboratories, priority 2008, dated 2012).

The IC50 is the point on the concentration scale where inhibition reaches its midpoint. What is called inhibition is the relative decrease from the control value, in per cent.

human Cav2.2, sequence (Q00975 whole entry): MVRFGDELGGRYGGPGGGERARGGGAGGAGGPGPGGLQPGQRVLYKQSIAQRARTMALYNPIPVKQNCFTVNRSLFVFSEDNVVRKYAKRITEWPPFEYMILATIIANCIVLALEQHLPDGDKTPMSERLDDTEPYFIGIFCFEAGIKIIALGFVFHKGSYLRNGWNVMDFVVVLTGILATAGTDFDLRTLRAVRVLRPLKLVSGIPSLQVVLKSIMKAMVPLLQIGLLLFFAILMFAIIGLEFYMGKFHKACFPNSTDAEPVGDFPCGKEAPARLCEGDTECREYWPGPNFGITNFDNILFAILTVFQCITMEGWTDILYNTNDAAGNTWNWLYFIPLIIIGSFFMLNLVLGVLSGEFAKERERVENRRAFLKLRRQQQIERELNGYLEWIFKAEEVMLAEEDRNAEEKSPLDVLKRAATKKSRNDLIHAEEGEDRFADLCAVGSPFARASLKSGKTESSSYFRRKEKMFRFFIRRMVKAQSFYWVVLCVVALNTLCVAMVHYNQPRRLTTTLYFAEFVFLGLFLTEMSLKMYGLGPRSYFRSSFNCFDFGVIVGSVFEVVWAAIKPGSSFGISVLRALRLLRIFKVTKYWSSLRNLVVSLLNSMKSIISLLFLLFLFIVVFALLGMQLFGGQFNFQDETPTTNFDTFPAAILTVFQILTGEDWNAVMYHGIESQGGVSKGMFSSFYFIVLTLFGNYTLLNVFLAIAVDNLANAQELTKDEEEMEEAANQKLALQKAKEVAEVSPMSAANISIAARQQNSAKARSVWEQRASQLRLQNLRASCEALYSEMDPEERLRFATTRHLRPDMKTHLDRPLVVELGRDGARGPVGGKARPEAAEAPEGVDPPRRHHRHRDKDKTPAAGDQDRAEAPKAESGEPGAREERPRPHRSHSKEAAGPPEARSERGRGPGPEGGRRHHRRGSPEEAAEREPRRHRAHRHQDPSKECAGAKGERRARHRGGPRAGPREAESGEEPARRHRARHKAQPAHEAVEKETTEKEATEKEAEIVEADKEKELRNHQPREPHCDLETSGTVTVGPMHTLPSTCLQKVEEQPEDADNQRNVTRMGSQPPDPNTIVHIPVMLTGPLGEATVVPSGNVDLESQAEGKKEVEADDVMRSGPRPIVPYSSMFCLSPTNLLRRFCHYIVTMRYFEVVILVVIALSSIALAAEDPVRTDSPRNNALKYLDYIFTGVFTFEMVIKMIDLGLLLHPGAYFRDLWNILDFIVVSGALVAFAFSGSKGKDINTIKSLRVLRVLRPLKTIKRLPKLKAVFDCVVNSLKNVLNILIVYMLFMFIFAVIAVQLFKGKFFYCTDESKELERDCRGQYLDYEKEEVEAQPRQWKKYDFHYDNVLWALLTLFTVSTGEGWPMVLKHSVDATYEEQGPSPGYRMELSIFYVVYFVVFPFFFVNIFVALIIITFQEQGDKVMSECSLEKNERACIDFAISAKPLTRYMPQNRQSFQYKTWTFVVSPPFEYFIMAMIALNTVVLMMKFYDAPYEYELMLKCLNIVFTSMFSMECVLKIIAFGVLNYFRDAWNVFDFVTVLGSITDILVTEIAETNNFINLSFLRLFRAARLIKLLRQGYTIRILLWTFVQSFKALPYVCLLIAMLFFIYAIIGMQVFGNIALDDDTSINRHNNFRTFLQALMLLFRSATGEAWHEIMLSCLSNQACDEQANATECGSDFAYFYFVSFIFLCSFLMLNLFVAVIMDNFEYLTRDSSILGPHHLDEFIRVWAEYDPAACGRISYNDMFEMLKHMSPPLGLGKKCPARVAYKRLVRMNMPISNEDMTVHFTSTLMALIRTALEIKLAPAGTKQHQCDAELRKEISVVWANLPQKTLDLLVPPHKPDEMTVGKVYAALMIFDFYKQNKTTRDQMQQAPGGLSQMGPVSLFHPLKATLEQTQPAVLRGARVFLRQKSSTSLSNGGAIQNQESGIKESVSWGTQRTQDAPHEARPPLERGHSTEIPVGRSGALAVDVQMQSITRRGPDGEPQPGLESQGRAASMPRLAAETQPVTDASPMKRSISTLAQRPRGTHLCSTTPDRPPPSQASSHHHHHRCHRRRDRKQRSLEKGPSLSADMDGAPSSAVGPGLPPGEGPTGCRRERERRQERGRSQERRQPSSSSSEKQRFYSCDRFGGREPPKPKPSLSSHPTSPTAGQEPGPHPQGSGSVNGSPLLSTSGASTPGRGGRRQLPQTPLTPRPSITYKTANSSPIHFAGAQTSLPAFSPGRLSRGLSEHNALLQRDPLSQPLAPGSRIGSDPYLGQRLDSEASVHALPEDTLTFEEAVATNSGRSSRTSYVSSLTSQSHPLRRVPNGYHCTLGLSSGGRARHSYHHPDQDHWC
human Cav2.2, sequence (P54289 25-946 partner limits assumed): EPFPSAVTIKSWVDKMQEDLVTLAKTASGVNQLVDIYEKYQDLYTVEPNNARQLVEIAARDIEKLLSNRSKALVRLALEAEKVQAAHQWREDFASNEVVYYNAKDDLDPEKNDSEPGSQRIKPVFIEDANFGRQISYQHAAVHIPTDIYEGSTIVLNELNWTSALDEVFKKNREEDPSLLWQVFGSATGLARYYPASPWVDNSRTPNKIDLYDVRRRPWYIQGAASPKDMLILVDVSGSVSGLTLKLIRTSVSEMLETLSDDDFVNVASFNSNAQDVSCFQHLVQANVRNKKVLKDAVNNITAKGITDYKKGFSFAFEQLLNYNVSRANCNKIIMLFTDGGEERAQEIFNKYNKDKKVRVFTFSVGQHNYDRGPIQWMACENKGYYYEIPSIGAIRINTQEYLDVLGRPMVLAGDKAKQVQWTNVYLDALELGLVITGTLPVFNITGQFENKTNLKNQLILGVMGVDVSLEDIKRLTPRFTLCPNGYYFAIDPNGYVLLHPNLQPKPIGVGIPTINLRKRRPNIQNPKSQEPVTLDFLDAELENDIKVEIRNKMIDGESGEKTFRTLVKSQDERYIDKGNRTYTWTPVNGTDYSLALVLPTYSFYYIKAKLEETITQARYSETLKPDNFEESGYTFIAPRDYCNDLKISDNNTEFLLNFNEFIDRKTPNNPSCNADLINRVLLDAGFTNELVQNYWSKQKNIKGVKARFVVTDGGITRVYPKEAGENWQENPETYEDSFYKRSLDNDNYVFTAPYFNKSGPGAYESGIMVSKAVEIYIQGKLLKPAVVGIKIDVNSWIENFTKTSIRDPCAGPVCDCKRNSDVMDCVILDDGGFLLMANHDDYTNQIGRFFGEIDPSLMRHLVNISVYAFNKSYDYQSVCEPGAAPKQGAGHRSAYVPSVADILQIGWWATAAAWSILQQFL
human Cav2.2, sequence (P54289 947-1103 partner limits assumed): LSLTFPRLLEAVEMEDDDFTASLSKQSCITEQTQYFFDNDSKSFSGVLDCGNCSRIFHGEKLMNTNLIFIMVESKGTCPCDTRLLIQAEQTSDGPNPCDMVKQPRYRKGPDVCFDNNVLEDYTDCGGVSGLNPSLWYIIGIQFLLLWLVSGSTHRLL
human Cav2.2, sequence (P54284 whole entry partner): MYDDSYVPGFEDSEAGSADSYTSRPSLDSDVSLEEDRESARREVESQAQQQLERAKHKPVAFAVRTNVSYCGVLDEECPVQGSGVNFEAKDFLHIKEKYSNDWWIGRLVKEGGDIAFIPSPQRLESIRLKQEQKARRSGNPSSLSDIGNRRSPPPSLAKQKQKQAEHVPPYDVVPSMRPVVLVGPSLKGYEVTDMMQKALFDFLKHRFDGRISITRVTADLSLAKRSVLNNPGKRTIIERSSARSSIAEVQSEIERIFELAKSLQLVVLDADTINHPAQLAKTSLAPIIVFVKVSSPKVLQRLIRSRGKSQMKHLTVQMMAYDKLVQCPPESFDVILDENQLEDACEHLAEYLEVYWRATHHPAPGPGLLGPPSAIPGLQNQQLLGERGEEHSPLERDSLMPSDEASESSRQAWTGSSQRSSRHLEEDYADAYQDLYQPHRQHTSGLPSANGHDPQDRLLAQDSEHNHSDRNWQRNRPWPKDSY

One experiment deals with human Cav2.2 (Homo sapiens, UniProt Q00975). The experiment in a line: Assessment of calcium channel activity using FLIPR (Ca2+ influx in IMR32 cells). Conditions: 3 minute pre-incubation with compound (*), 2 μM nifedipine, depolarized with 80 mM KCl. The experiment is classed as cell-based. An outline of the steps:
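IMR32 neuroblastoma cells seeded at 1-1.2×10^5 cells/well and grown 48 h at 37 °C before FLIPR Ca2+ influx read. Percent inhibition at each concentration vs no-inhibitor activity; IC50 by non-linear sigmoidal dose-response fit.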
Turning to `CC(C)C(C(=O)N[C@H]1CC[C@@H]2CN(Cc3ccc(C(F)(F)F)cc3)C[C@@H]21)c1ccccc1` (stereo partly drawn) [Example 98, 3-methyl-2-phenyl-N-{(3aR,4S,6aS)-2-[4-(trifluoromethyl)benzyl]octahydrocyclopenta[c]pyrrol-4-yl}butanamide], the 50% inhibitory concentration (IC50) amounted to 4.9 µM.

The experiment is the same for the next values; noted with them: 60 minute pre-incubation with compound, 2 μM nifedipine, depolarized with 80 mM KCl.
Consider `CC(C)C[C@@H](C(=O)N[C@H]1CC[C@@H]2CN(Cc3cccc(C(F)(F)F)c3)C[C@@H]21)N(C)C(=O)OC(C)(C)C` [Example 307, tert-butyl methyl((S)-4-methyl-1-oxo-1-((3aR,4S,6aS)-2-(3-(trifluoromethyl)benzyl)octahydrocyclopenta[c]pyrrol-4-ylamino)pentan-2-yl)carbamate], for which the 50% inhibitory concentration (IC50) worked out at 1.54 µM. As to `CN[C@@H](CC(C)C)C(=O)N[C@@H]1CC[C@@H]2CN(S(=O)(=O)c3ccc(C(F)(F)F)cc3)C[C@@H]21` [Example 421, N^2-methyl-N^1-((3aR,4R,6aS)-2-{[4-(trifluoromethyl)phenyl]sulfonyl}octahydrocyclopenta[c]pyrrol-4-yl)-L-leucinamide], the IC50 was determined as 2.56 µM.

`CC(C)(C)C[C@H](N)C(=O)N[C@H]1CC[C@@H]2CN(c3cccc(C(F)(F)F)n3)C[C@@H]21` [Example 441, 4-methyl-N^1-{(3aR,4S,6aS)-2-[6-(trifluoromethyl)pyridin-2-yl]octahydrocyclopenta[c]pyrrol-4-yl}-L-leucinamide]: the half-maximal inhibitory concentration (IC50) is 0.37 µM.

Consider `O=C(N[C@H]1CC[C@H]2CN(Cc3cccc(C(F)(F)F)c3)C[C@H]21)C1CCCCCC1` (relative stereo) [Example 128, N-{(3aS*,4S*,6aR*)-2-[3-(trifluoromethyl)benzyl]octahydrocyclopenta[c]pyrrol-4-yl}cycloheptanecarboxamide], for which the IC50 is 1 µM. Regarding `CN(C(=O)OC(C)(C)C)[C@@H](CC(C)(C)C)C(=O)N[C@@H]1CC[C@H]2CN(Cc3ccccc3)C[C@H]21` [Example 248, tert-butyl(S)-1-((3aS,4R,6aR)-2-benzyloctahydrocyclopenta[c]pyrrol-4-ylamino)-4,4-dimethyl-1-oxopentan-2-yl(methyl)carbamate], the IC50 was 1.67 µM. In the case of `CC(C)[C@@H](C(=O)N[C@H]1CC[C@@H]2CN(S(=O)(=O)c3cccc(C(F)(F)F)c3)C[C@@H]21)N(C)C(=O)OC(C)(C)C` [Example 273, tert-butyl methyl((S)-3-methyl-1-oxo-1-((3aR,4S,6aS)-2-(3-(trifluoromethyl)phenylsulfonyl)octahydrocyclopenta[c]pyrrol-4-ylamino)butan-2-yl)carbamate], the half-inhibitory concentration (IC50) turned out to be 0.18 µM.

`O=C(N[C@H]1CC[C@H]2CN(Cc3ccccc3)C[C@H]21)C(C1CCCCC1)C1CCCCC1` (relative stereo) [Example 11, N-[(3aS*,4S*,6aR*)-2-benzyloctahydrocyclopenta[c]pyrrol-4-yl]-2,2-dicyclohexylacetamide]: the concentration for half-maximal inhibition (IC50) was determined as 4 µM.

Turning to `CCC[C@H](NC)C(=O)N[C@H]1CC[C@@H]2CN(S(=O)(=O)c3cccc(C#N)c3)C[C@@H]21` [Example 546, N^1-{(3aR,4S,6aS)-2-[(3-cyanophenyl)sulfonyl]octahydrocyclopenta[c]pyrrol-4-yl}-N^2-methyl-L-norvalinamide], the IC50 is 6.32 µM. Regarding `FC(F)(F)c1cccc(CN2C[C@H]3CC[C@H](NC(c4ccccc4)c4ccccc4)[C@H]3C2)c1` [Example 466, (3aR,4S,6aS)—N-benzhydryl-2-[3-(trifluoromethyl)benzyl]octahydrocyclopenta[c]pyrrol-4-amine], the 50% inhibitory concentration (IC50) is 2.33 µM. Turning to `CCC[C@@H](C(=O)N[C@@H]1CC[C@H]2CN(S(=O)(=O)c3ccc(F)cc3)C[C@H]21)N(C)C(=O)OC(C)(C)C` [Example 330, tert-butyl(S)-1-((3aS,4R,6aR)-2-(4-fluorophenylsulfonyl)octahydrocyclopenta[c]pyrrol-4-ylamino)-1-oxopentan-2-yl(methyl)carbamate], the half-inhibitory concentration (IC50) is 1.11 µM.

As for `CN[C@@H](CC(C)(C)C)C(=O)N1C[C@H]2CC[C@H](NC(=O)C(c3ccc(F)cc3)c3ccc(F)cc3)[C@H]2C1` [Example 461, N-[(3aR,4S,6aS)-2-(N,4-dimethyl-L-leucyl)octahydrocyclopenta[e]pyrrol-4-yl]-2,2-bis(4-fluorophenyl)acetamide], the half-maximal inhibitory concentration (IC50) came to 1.88 µM. Consider `CC(C)(C)OC(=O)N1CCC[C@H]1C(=O)N[C@@H]1CC[C@H]2CN(S(=O)(=O)c3cccc(C(F)(F)F)c3)C[C@H]21` [Example 266, (S)-tert-butyl 2-((3aS,4R,6aR)-2-(3-(trifluoromethyl)phenylsulfonyl)octahydrocyclopenta[c]pyrrol-4-ylcarbamoyl)pyrrolidine-1-carboxylate], for which the IC50 stood at 0.87 µM.

For `O=C(N[C@H]1CC[C@H]2CN(CCCCCC(c3ccc(F)cc3)c3ccc(F)cc3)C[C@H]21)C(C1CCCCC1)C1CCCCC1` [Example 66, N-{(3aS,4S,6aR)-2-[6,6-bis(4-fluorophenyl)hexyl]octahydrocyclopenta[c]pyrrol-4-yl}-2,2-dicyclohexylacetamide], the IC50 was found to be 0.9 µM. On to `O=S(=O)(N[C@@H]1CC[C@@H]2CN(Cc3cccc(C(F)(F)F)c3)C[C@@H]21)c1cccc(C(F)(F)F)c1` [Example 188, 3-(trifluoromethyl)-N-{(3aR,4R,6aS)-2-[3-(trifluoromethyl)benzyl]octahydrocyclopenta[c]pyrrol-4-yl}benzenesulfonamide], for which the IC50 worked out at 0.8 µM.

In the case of `CCC[C@H](NC1CCCCC1)C(=O)N[C@H]1CC[C@@H]2CN(S(=O)(=O)c3ccc(C(F)(F)F)cc3)C[C@@H]21` [Example 507, N^2-cyclohexyl-N^1-((3aR,4S,6aS)-2-{[4-(trifluoromethyl)phenyl]sulfonyl}octahydrocyclopenta[c]pyrrol-4-yl)-L-norvalinamide], the IC50 was found to be 0.87 µM. `CC(C)C[C@@H](C(=O)N[C@@H]1CC[C@H]2CN(S(=O)(=O)c3cccc(C(F)(F)F)c3)C[C@H]21)N1CCOCC1` [Example 319, (2S)-4-methyl-2-morpholin-4-yl-N-((3aS,4R,6aR)-2-{[3-(trifluoromethyl)phenyl]sulfonyl}octahydrocyclopenta[c]pyrrol-4-yl)pentanamide]: the IC50 was 1.21 µM.

Take `CC(C)C[C@H](NC(=O)OC(C)(C)C)C(=O)N[C@H]1CC[C@@H]2CN(Cc3ccccc3)C[C@@H]21` [Example 221, tert-butyl(S)-1-((3aR,4S,6aS)-2-benzyloctahydrocyclopenta[c]pyrrol-4-ylamino)-4-methyl-1-oxopentan-2-ylcarbamate]: the IC50 was 3.93 µM. Consider `O=S(=O)(c1cccc(C(F)(F)F)c1)N1C[C@@H]2CC[C@@H](NCc3ccc(F)cc3)[C@@H]2C1` [Example 285, (3aS,4R,6aR)—N-(4-fluorobenzyl)-2-{[3-(trifluoromethyl)phenyl]sulfonyl}octahydrocyclopenta[c]pyrrol-4-amine], for which the IC50 was found to be 0.48 µM.

The same experiment, now with this note: IMR-32, @ 10 μM, 3 minute pre-incubation (*), read-out: percent inhibition.
On to `CC(C)C(C(=O)N[C@H]1CC[C@@H]2CN(C(=O)c3ccccc3)C[C@@H]21)c1ccccc1` (stereo partly drawn) [Example 218, N-[(3aR,4S,6aS)-2-benzoyloctahydrocyclopenta[c]pyrrol-4-yl]-3-methyl-2-phenylbutanamide], for which the inhibition at 10 µM was 56%. Take `CC(C)C(C(=O)N[C@H]1CC[C@@H]2CN(C)C[C@@H]21)c1ccccc1` (stereo partly drawn) [Example 84, 3-methyl-N-[(3aR,4S,6aS)-2-methyloctahydrocyclopenta[c]pyrrol-4-yl]-2-phenylbutanamide]: the inhibition at 10 µM stood at 5.8%.
